In patent publication USRE49022E1, “Insecticidal compounds” (SYNGENTA PARTICIPATIONS AG, priority 2013, dated 2022):

How the values were obtained:
Format in all cases: in vivo
[1] = system: Diabrotica balteata (Corn Root Worm); assay: Diabrotica balteata, artificial diet MTP test; settings: 120 h, 200 ppm (concentration in well 18 ppm), L2 larvae, larval mortality after 5 days
Protocol: A 24-well microtiter plate (MTP) with artificial diet was treated with test solutions at an application rate of 200 ppm (concentration in well 18 ppm) by pipetting. After drying, the MTP's were infested with L2 larvae (6-10 per well). After an incubation period of 5 days, samples were checked for larval mortality The following compound gave at least 80% control of Diabrotica balteata: 1, 2, 3, 4, 5, 6, 7, 8, 9, 10, 11, 12, 13, 14, 15, 16, 17, 18, 19, 20, 21, 22, 23, 24, 25, 26, 27, 28, 29, 30, 31, 32, 33, 34, 35, 36, 37, 38, 39, 40, 41, 42, 43, 44, 45, 46, 47, 48, 49, 50, 51.

[2] = system: Myzus persicae (Green Peach Aphid); assay: Myzus persicae, sunflower leaf disc spray test; settings: foliar, 144 h, sprayed sunflower leaf discs, aphid population of mixed ages, mortality after 6 DAT
Protocol: Sunflower leaf discs were placed on agar in a 24-well microtiter plate and sprayed with test solutions at an application rate of 200 ppm. After drying, the leaf discs were infested with an aphid population of mixed ages. After an incubation period of 6 DAT, samples were checked for mortality.

[3] = system: Myzus persicae (Green Peach Aphid); assay: Myzus persicae, sucrose solution / Parafilm test; settings: 120 h, mixed with sucrose solution under Parafilm, mortality 5 days after infestation
Source text: Test compounds were applied by pipette into 24 well plates and mixed with Sucrose solution. Application rate: 12.5 ppm. The plates were closed with a stretched Parafilm. A plastic stencil with 24 holes is placed onto the plate and infested pea seedlings were placed directly on the Parafilm. The infested plate is closed with a gel blotting paper and another plastic stencil and then turned upside down. 5 days after infestation the samples were checked on mortality.

[4] = system: Plutella xylostella (Diamond Back Moth); assay: Plutella xylostella, artificial diet MTP test; settings: 144 h, 200 ppm (concentration in well 18 ppm), L2 larvae, 6 days
Protocol: 24-well microtiter plate (MTP) with artificial diet was treated with test solutions at an application rate of 200 ppm (concentration in well 18 ppm) by pipetting. After drying, the MTP's were infested with L2 larvae (7-12 per well). After an incubation period of 6 days, samples were checked for larval mortality and growth regulation. The following compound gave at least 80% mortality of Plutella xylostella: 1, 2, 3, 4, 5, 6, 7, 8, 9, 10, 11, 12, 13, 14, 15, 16, 17, 18, 19, 20, 21, 22, 23, 24, 25, 26, 27, 28, 29, 30, 31, 32, 33, 34, 35, 36, 37, 38, 39, 40, 41, 42, 43, 44, 45, 46, 47, 48, 49, 50.

[5] = system: Spodoptera littoralis (Egyptian Cotton Leafworm); assay: Spodoptera littoralis, cotton leaf disc spray test; settings: foliar, 72 h, sprayed cotton leaf discs, L1 larvae, 3 days after treatment
Source text: Cotton leaf discs were placed on agar in a 24-well microtiter plate and sprayed with test solutions at an application rate of 200 ppm. After drying, the leaf discs were infested with 5 L1 larvae. The samples were checked for mortality 3 days after treatment (DAT).

[6] = system: Spodoptera littoralis (Egyptian Cotton Leaf Worm); assay: Spodoptera littoralis, agar / lettuce root uptake test; settings: 144 h, mixed with agar, uptake by lettuce roots, mortality 6 days after infestation
Source text: Test compounds were applied by pipette into 24 well plates and mixed with agar. Application rate: 12.5 ppm. Lettuce seeds were placed on the agar and the multi well plate is closed by another plate which contains also agar. After 7 days the roots have absorbed the compound and the lettuce has grown into the lid plate. The lettuce leafs were now cut off into the lid plate. Spodoptera eggs were pipetted through a plastic stencil on a humid gel blotting paper and the plate closed with it. The samples are checked for mortality 6 days after infestation.

[7] = system: Tetranychus urticae (Two-Spotted Spider Mite); assay: Tetranychus urticae, bean leaf disc spray test; settings: foliar, 192 h, sprayed bean leaf discs, mite populations of mixed ages, 8 days
Source text: Bean leaf discs on agar in 24-well microtiter plates were sprayed with test solutions at an application rate of 200 ppm. After drying, the leaf discs are infested with mite populations of mixed ages. 8 days later, discs were checked for mortality.

[8] = system: Thrips tabaci (Onion Thrips); assay: Thrips tabaci, sunflower leaf disc spray test; settings: foliar, 168 h, sprayed sunflower leaf discs, mortality after 7 days

COc1c(NC(=O)c2cc[n+]([O-])cc2)cccc1C(=O)Nc1c(Br)cc(C(F)(C(F)(F)F)C(F)(F)Cl)cc1OC(F)F (centres unmarked) [Compound 25]
≥ 80%: pest or weed control at 200 ppm [1] | pest or weed control at 200 ppm [2] | pest or weed control at 12.5 ppm [3] | mortality at 200 ppm [4] | mortality at 200 ppm [5] | pest or weed control at 12.5 ppm [6] | mortality at 200 ppm [7] | pest or weed control at 200 ppm [8]

CCN(C(=O)c1ccncc1)c1cccc(C(=O)Nc2c(Br)cc(C(F)(C(F)(F)F)C(F)(F)Br)cc2OC(F)F)c1F (centres unmarked) [Compound 7]
≥ 80%: pest or weed control at 200 ppm [1] | pest or weed control at 200 ppm [2] | pest or weed control at 12.5 ppm [3] | mortality at 200 ppm [4] | mortality at 200 ppm [5] | pest or weed control at 12.5 ppm [6] | mortality at 200 ppm [7] | pest or weed control at 200 ppm [8]

COc1c(NC(=O)c2ccc(C#N)cc2)cccc1C(=O)Nc1c(Br)cc(C(F)(C(F)(F)F)C(F)(F)Cl)cc1OC(F)F (centres unmarked) [Compound 16]
≥ 80%: pest or weed control at 200 ppm [1] | pest or weed control at 200 ppm [2] | pest or weed control at 12.5 ppm [3] | mortality at 200 ppm [4] | mortality at 200 ppm [5] | pest or weed control at 12.5 ppm [6] | mortality at 200 ppm [7] | pest or weed control at 200 ppm [8]

CCN(C(=O)c1ccncc1)c1cccc(C(=O)Nc2c(Br)cc(C(F)(C(F)(F)F)C(F)(F)Cl)cc2OC(F)F)c1OC (centres unmarked) [Compound 36, N-[3-[[2-bromo-4-[1-[chloro(difluoro)methyl]-1,2,2,2-tetrafluoro-ethyl]-6-(difluoromethoxy)phenyl]carbamoyl]-2-methoxy-phenyl]-N-ethyl-pyridine-4-carboxamide]
≥ 80%: pest or weed control at 200 ppm [1] | pest or weed control at 200 ppm [2] | pest or weed control at 12.5 ppm [3] | mortality at 200 ppm [4] | mortality at 200 ppm [5] | pest or weed control at 12.5 ppm [6] | mortality at 200 ppm [7] | pest or weed control at 200 ppm [8]

O=C(Nc1cccc(C(=O)Nc2c(Br)cc(C(F)(C(F)(F)F)C(F)(F)Cl)cc2OC(F)F)c1F)c1ccc[n+]([O-])c1 (centres unmarked) [Compound 24]
≥ 80%: pest or weed control at 200 ppm [1] | pest or weed control at 200 ppm [2] | pest or weed control at 12.5 ppm [3] | mortality at 200 ppm [4] | mortality at 200 ppm [5] | pest or weed control at 12.5 ppm [6] | mortality at 200 ppm [7] | pest or weed control at 200 ppm [8]

CCN(C(=O)c1cc[n+]([O-])cc1)c1cccc(C(=O)Nc2c(Br)cc(C(F)(C(F)(F)F)C(F)(F)Cl)cc2OC(F)F)c1F (centres unmarked) [Compound 43]
≥ 80%: pest or weed control at 200 ppm [1] | pest or weed control at 200 ppm [2] | pest or weed control at 12.5 ppm [3] | mortality at 200 ppm [4] | mortality at 200 ppm [5] | pest or weed control at 12.5 ppm [6] | mortality at 200 ppm [7] | pest or weed control at 200 ppm [8]

CCc1cc(C(F)(C(F)(F)F)C(F)(F)Cl)cc(Br)c1NC(=O)c1cccc(N(CC)C(=O)c2ccc[n+]([O-])c2)c1OC (centres unmarked) [Compound 50]
≥ 80%: pest or weed control at 200 ppm [1] | pest or weed control at 200 ppm [2] | pest or weed control at 12.5 ppm [3] | mortality at 200 ppm [4] | mortality at 200 ppm [5] | pest or weed control at 12.5 ppm [6] | mortality at 200 ppm [7] | pest or weed control at 200 ppm [8]

CCc1cc(C(F)(C(F)(F)F)C(F)(F)Cl)cc(Br)c1NC(=O)c1cccc(N(CC)C(=O)c2cccnc2)c1F (centres unmarked) [Compound 41]
≥ 80%: pest or weed control at 200 ppm [1] | pest or weed control at 200 ppm [2] | pest or weed control at 12.5 ppm [3] | mortality at 200 ppm [4] | mortality at 200 ppm [5] | pest or weed control at 12.5 ppm [6] | mortality at 200 ppm [7] | pest or weed control at 200 ppm [8]

CCN(C(=O)c1ccncc1)c1cccc(C(=O)Nc2c(Br)cc(C(F)(C(F)(F)F)C(F)(F)Cl)cc2OC(F)F)c1F (centres unmarked) [Compound 35]
≥ 80%: pest or weed control at 200 ppm [1] | pest or weed control at 200 ppm [2] | pest or weed control at 12.5 ppm [3] | mortality at 200 ppm [4] | mortality at 200 ppm [5] | pest or weed control at 12.5 ppm [6] | mortality at 200 ppm [7] | pest or weed control at 200 ppm [8]

CCN(C(=O)c1ccc(C#N)cc1)c1cccc(C(=O)Nc2c(Br)cc(C(F)(C(F)(F)F)C(F)(F)Br)cc2OC(F)F)c1OC (centres unmarked) [Compound 10]
≥ 80%: pest or weed control at 200 ppm [1] | pest or weed control at 200 ppm [2] | pest or weed control at 12.5 ppm [3] | mortality at 200 ppm [4] | mortality at 200 ppm [5] | pest or weed control at 12.5 ppm [6] | mortality at 200 ppm [7] | pest or weed control at 200 ppm [8]

CCN(C(=O)c1cccnc1)c1cccc(C(=O)Nc2c(Br)cc(C(F)(C(F)(F)F)C(F)(F)Cl)cc2OC(F)F)c1F (centres unmarked) [Compound 39]
≥ 80%: pest or weed control at 200 ppm [1] | pest or weed control at 200 ppm [2] | pest or weed control at 12.5 ppm [3] | mortality at 200 ppm [4] | mortality at 200 ppm [5] | pest or weed control at 12.5 ppm [6] | mortality at 200 ppm [7] | pest or weed control at 200 ppm [8]

CCc1cc(C(F)(C(F)(F)F)C(F)(F)Cl)cc(Br)c1NC(=O)c1cccc(NC(=O)c2cccnc2)c1OC (centres unmarked) [Compound 21]
≥ 80%: pest or weed control at 200 ppm [1] | pest or weed control at 200 ppm [2] | pest or weed control at 12.5 ppm [3] | mortality at 200 ppm [4] | mortality at 200 ppm [5] | pest or weed control at 12.5 ppm [6] | mortality at 200 ppm [7] | pest or weed control at 200 ppm [8]

CCN(C(=O)c1ccc(C#N)cc1)c1cccc(C(=O)Nc2c(Br)cc(C(F)(C(F)(F)F)C(F)(F)Cl)cc2OC(F)F)c1OC (centres unmarked) [Compound 32]
≥ 80%: pest or weed control at 200 ppm [1] | pest or weed control at 200 ppm [2] | pest or weed control at 12.5 ppm [3] | mortality at 200 ppm [4] | mortality at 200 ppm [5] | pest or weed control at 12.5 ppm [6] | mortality at 200 ppm [7] | pest or weed control at 200 ppm [8]

COc1c(NC(=O)c2ccncc2)cccc1C(=O)Nc1c(Br)cc(C(F)(C(F)(F)F)C(F)(F)Cl)cc1OC(F)F (centres unmarked) [Compound 14]
≥ 80%: pest or weed control at 200 ppm [1] | pest or weed control at 200 ppm [2] | pest or weed control at 12.5 ppm [3] | mortality at 200 ppm [4] | mortality at 200 ppm [5] | pest or weed control at 12.5 ppm [6] | mortality at 200 ppm [7] | pest or weed control at 200 ppm [8]

COc1c(NC(=O)c2ccncc2)cccc1C(=O)Nc1c(Cl)cc(C(F)(C(F)(F)F)C(F)(F)Br)cc1Br (centres unmarked) [Compound 3, N-[3-[[2-bromo-4-[1-[bromo(difluoro)methyl]-1,2,2,2-tetrafluoro-ethyl]-6-chloro-phenyl]carbamoyl]-2-methoxy-phenyl]pyridine-4-carboxamide]
≥ 80%: pest or weed control at 200 ppm [1] | pest or weed control at 200 ppm [2] | pest or weed control at 12.5 ppm [3] | mortality at 200 ppm [4] | mortality at 200 ppm [5] | pest or weed control at 12.5 ppm [6] | mortality at 200 ppm [7] | pest or weed control at 200 ppm [8]

O=C(Nc1cccc(C(=O)Nc2c(Br)cc(C(F)(C(F)(F)F)C(F)(F)Br)cc2OC(F)F)c1F)c1cc[n+]([O-])cc1 (centres unmarked) [Compound 6]
≥ 80%: pest or weed control at 200 ppm [1] | pest or weed control at 200 ppm [2] | pest or weed control at 12.5 ppm [3] | mortality at 200 ppm [4] | mortality at 200 ppm [5] | pest or weed control at 12.5 ppm [6] | mortality at 200 ppm [7] | pest or weed control at 200 ppm [8]
